Reference: US9688702B2, “Alpha-amino boronic acid derivatives, selective immunoproteasome inhibitors” (Ares Trading S.A, priority 2011, dated 2017)
pIC50: −log10 of the molar value.

Assays:
[1] = target: LMP7 (purified human immuno proteasome) (Homo sapiens, UniProt P28062); experiment: Determination of LMP7 activity (fluorescence intensity assay, Suc-LLVY-AMC); type: biochemical; settings: for pIC50: purified human immuno proteasome 0.5 nM, 40 μM Suc-LLVY-AMC, 37° C.
Protocol: Measurement of LMP7 inhibition is performed in 384 well format based on fluorescence intensity assay.
(§1) Purified human immuno proteasome (0.5 nM) and serial diluted compounds in DMSO (range of concentrations from 10 μM to 38 pM) or controls (0.5% DMSO) are incubated for 30 minutes at 37° C. in assay buffer containing 50 mM Tris pH 7.4 and 0.03% SDS. The reaction is initiated by the addition of the fluorogenic peptide substrate, Suc-LLVY-AMC (Bachem I-1395), at a concentration of 40 μM. After 90 minutes of incubation at 37° C., fluorescence intensity is measured at λex=350 nm and λem=450 nm with a fluorescence reader (BMG Pherastar reader or equivalent).
as §1, with “proteasome (0.25” for “proteasome (0.5”

[2] = target: Beta5 (purified human constitutive proteasome) (Homo sapiens, UniProt P28074); experiment: Determination of Beta5 activity (fluorescence intensity assay, Suc-LLVY-AMC); type: biochemical; settings: purified human constitutive proteasome 1.0 nM, 40 μM Suc-LLVY-AMC, 37° C.
Protocol: Measurement of Beta5 inhibition is performed in 384 well format based on fluorescence intensity assay.
as §1, with “human constitutive” for “human immuno”, “proteasome (1.0” for “proteasome (0.5”, “(Bachem 1-1395),” for “(Bachem I-1395),”

Row | SMILES | Selectivity LMP7 vs Beta5 [1] | pIC50 [1] | pIC50 [2]
1 | O=C(CC(C(=O)N[C@@H](Cc1ccsc1)B(O)O)c1cccc(Cl)c1)c1ccccc1 (mixture of isomers) [Example 3, [(1R)-1-{[2-(RS)-(3-chlorophenyl)-4-oxo-4-phenylbutanoyl]amino}-2-(3-thienyl)ethyl]boronic acid] | +++ (+++: Selectivity > 30) | 6.30 to 7.30 | < 5.30
2 | O=C(CC(C(=O)N[C@@H](Cc1ccsc1)B(O)O)c1ccc(Cl)cc1)c1ccccc1 (mixture of isomers) [Example 4, [(1R)-1-{[2-(RS)-(4-chlorophenyl)-4-oxo-4-phenylbutanoyl]amino}-2-(3-thienyl)ethyl]boronic acid] | +++ (+++: Selectivity > 30) | 6.30 to 7.30 | 5.30 to 6.30
3 | CC(CC(=O)c1ccccc1)C(=O)N[C@@H](Cc1ccsc1)B(O)O (mixture of isomers) [Example 10, [(1R)-1-[(2-(RS)-methyl-4-oxo-4-phenylbutanoyl)amino]-2-(3-thienyl)ethyl]boronic acid] | – | 5.30 to 6.30 | < 5.30
4 | COc1ccc(C(=O)CC(Cc2ccccc2)C(=O)N[C@@H](Cc2cccc(C(F)(F)F)c2)B(O)O)cc1 (mixture of isomers) [Example 27, {(1R)-1-{[2-(RS)-benzyl-4-(4-methoxyphenyl)-4-oxobutanoyl]amino}-2-[3-(trifluoromethyl)phenyl]ethyl}boronic acid] | +++ (+++: Selectivity > 30) | > 7.30 | 5.30 to 6.30
5 | O=C(N[C@@H](Cc1ccsc1)B(O)O)[C@H]1CCCC[C@@H]1C(=O)c1ccccc1 (racemic) [Example 2, [(1R)-1-({[(1RS,2RS)-2-benzoylcyclohexyl]carbonyl}amino)-2-(3-thienyl)ethyl]boronic acid] | – | 5.30 to 6.30 | < 5.30
6 | O=C(N[C@@H](Cc1ccsc1)B(O)O)[C@H]1CCC[C@@H]1C(=O)c1ccccc1 (racemic) [Example 5, [1-({[(1RS,2SR)-2-benzoylcyclopentyl]carbonyl}amino)-2-(3-thienyl)ethyl]boronic acid] | – | 5.30 to 6.30 | < 5.30
7 | CCc1cccc(C[C@H](NC(=O)[C@H](CC(=O)c2ccccc2)c2cccc(Cl)c2)B(O)O)c1 (single isomer, unassigned) [Example 14] | +++ (+++: Selectivity > 30) | 6.30 to 7.30 | 5.30 to 6.30
8 | CCc1cccc(C[C@H](NC(=O)[C@H](CC(=O)c2ccccc2)c2ccc(Cl)cc2)B(O)O)c1 (single isomer, unassigned) [Example 15] | +++ (+++: Selectivity > 30) | 6.30 to 7.30 | < 5.30
9 | CCc1cccc(C[C@H](NC(=O)[C@@H](CC(=O)c2ccccc2)c2ccc(Cl)cc2)B(O)O)c1 (single isomer, unassigned) [Example 16] | – | 5.30 to 6.30 | < 5.30
10 | COc1ccc(C(=O)C[C@H](Cc2ccccc2)C(=O)N[C@@H](Cc2ccsc2)B(O)O)cc1 (single isomer, unassigned) [Example 24] | +++ (+++: Selectivity > 30) | > 7.30 | 6.30 to 7.30
11 | COc1ccc(C(=O)C[C@@H](Cc2ccccc2)C(=O)N[C@@H](Cc2ccsc2)B(O)O)cc1 (single isomer, unassigned) [Example 25] | +++ (+++: Selectivity > 30) | 6.30 to 7.30 | < 5.30
12 | O=C(CCC(=O)c1ccccc1)N[C@@H](Cc1ccsc1)B(O)O [Example 1, [(1R)-1-[(4-oxo-4-phenylbutanoyl)amino]-2-(3-thienyl)ethyl]boronic acid] | ++ (++: 10 < Selectivity < 30) | 6.30 to 7.30 | 5.30 to 6.30
13 | CCc1cccc(C[C@H](NC(=O)CCC(=O)c2ccccc2)B(O)O)c1 [Example 6, {(1R)-2-(3-ethylphenyl)-1-[(4-oxo-4-phenylbutanoyl)amino]ethyl}boronic acid] | +++ (+++: Selectivity > 30) | 6.30 to 7.30 | < 5.30
14 | CCc1cccc(C[C@H](NC(=O)CCC(=O)c2ccc(OC)cc2)B(O)O)c1 [Example 7, ((1R)-2-(3-ethylphenyl)-1-{[4-(4-methoxyphenyl)-4-oxobutanoyl]amino}ethyl)boronic acid] | +++ (+++: Selectivity > 30) | 6.30 to 7.30 | < 5.30
15 | CCc1cccc(C[C@H](NC(=O)CCC(=O)c2ccccc2OC)B(O)O)c1 [Example 8, ((1R)-2-(3-ethylphenyl)-1-{[4-(2-methoxyphenyl)-4-oxobutanoyl]amino}ethyl)boronic acid] | – | 6.30 to 7.30 | < 5.30
16 | COc1ccc(C(=O)CCC(=O)N[C@@H](Cc2ccsc2)B(O)O)cc1 [Example 9, [(1R)-1-{[4-(4-methoxyphenyl)-4-oxobutanoyl]amino}-2-(3-thienyl)ethyl]boronic acid] | ++ (++: 10 < Selectivity < 30) | 6.30 to 7.30 | 5.30 to 6.30
17 | CCc1cccc(C[C@H](NC(=O)CCC(=O)c2ccc(OC)cc2OC)B(O)O)c1 [Example 11, [(1R)-1-{[4-(2,4-dimethoxyphenyl)-4-oxobutanoyl]amino}-2-(3-ethylphenyl)ethyl]boronic acid] | +++ (+++: Selectivity > 30) | 6.30 to 7.30 | < 5.30
18 | COc1ccccc1C(=O)CCC(=O)N[C@@H](Cc1ccsc1)B(O)O [Example 12, [(1R)-1-{[4-(2-methoxyphenyl)-4-oxobutanoyl]amino}-2-(3-thienyl)ethyl]boronic acid] | – | 5.30 to 6.30 | < 5.30
19 | COc1ccc(C(=O)CCC(=O)N[C@@H](Cc2ccsc2)B(O)O)c(OC)c1 [Example 13, [(1R)-1-{[4-(2,4-dimethoxyphenyl)-4-oxobutanoyl]amino}-2-(3-thienyl)ethyl]boronic acid] | ++ (++: 10 < Selectivity < 30) | 6.30 to 7.30 | < 5.30
20 | CCc1cccc(C[C@H](NC(=O)CCC(=O)c2ccc(-c3ccccc3)cc2)B(O)O)c1 [Example 17, [(1R)-1-[(4-biphenyl-4-yl-4-oxobutanoyl)amino]-2-(3-ethylphenyl)ethyl]boronic acid] | ++ (++: 10 < Selectivity < 30) | 6.30 to 7.30 | 5.30 to 6.30
21 | CCc1cccc(C[C@H](NC(=O)CCC(=O)c2ccc3ccccc3c2)B(O)O)c1 [Example 18, ((1R)-2-(3-ethylphenyl)-1-{[4-(2-naphthyl)-4-oxobutanoyl]amino}ethyl)boronic acid] | +++ (+++: Selectivity > 30) | 6.30 to 7.30 | 5.30 to 6.30
22 | CCc1cccc(C[C@H](NC(=O)CCC(=O)c2cccc(-c3ccccc3)c2)B(O)O)c1 [Example 19, [(1R)-1-[(4-biphenyl-3-yl-4-oxobutanoyl)amino]-2-(3-ethylphenyl)ethyl]boronic acid] | ++ (++: 10 < Selectivity < 30) | 6.30 to 7.30 | 5.30 to 6.30
23 | O=C(CCC(=O)c1ccc(-c2ccccc2)cc1)N[C@@H](Cc1ccsc1)B(O)O [Example 20, [(1R)-1-[(4-biphenyl-4-yl-4-oxobutanoyl)amino]-2-(3-thienyl)ethyl]boronic acid] | + (+: Selectivity < 10) | 6.30 to 7.30 | 5.30 to 6.30
24 | O=C(CCC(=O)c1ccc2ccccc2c1)N[C@@H](Cc1ccsc1)B(O)O [Example 21, [(1R)-1-{[4-(2-naphthyl)-4-oxobutanoyl]amino}-2-(3-thienyl)ethyl]boronic acid] | ++ (++: 10 < Selectivity < 30) | 6.30 to 7.30 | 5.30 to 6.30
25 | O=C(CCC(=O)c1cccc(-c2ccccc2)c1)N[C@@H](Cc1ccsc1)B(O)O [Example 22, [(1R)-1-[(4-biphenyl-3-yl-4-oxobutanoyl)amino]-2-(3-thienyl)ethyl]boronic acid] | ++ (++: 10 < Selectivity < 30) | 6.30 to 7.30 | 5.30 to 6.30
26 | O=C(CCC(=O)c1cccc(-c2ccccc2)n1)N[C@@H](Cc1ccsc1)B(O)O [Example 23, [(1R)-1-{[4-oxo-4-(6-phenylpyridin-2-yl)butanoyl]amino}-2-(3-thienyl)ethyl]boronic acid] | ++ (++: 10 < Selectivity < 30) | 6.30 to 7.30 | 5.30 to 6.30
27 | CCc1cccc(C[C@H](NC(C)=O)B(O)O)c1 [Example 77, (R)-(1-acetamido-2-(3-ethylphenyl)ethyl)boronic acid] | – | 5.30 to 6.30 | –
